For this assay, the system named is Era-His association to 30S ribosomes in S. aureus USA300. Description: In vivo ribosome association of Era-His to 30S in S. aureus cells. Format: cell-based, Staphylococcus aureus. As to conditions: USA300 (p)ppGpp-null Δera iTET-era-His; 0.05 or 60 μg/ml mupirocin for 15 min. An excerpt: Upon induction of the stringent response, cellular levels of (p)ppGpp increase, while concentration of GTP drops ([38]). Having observed decreased association of RA-GTPases to ribosomal subunits in vitro, we wanted to examine the interaction under more physiologically relevant conditions. To investigate RA-GTPases interactions with the ribosome in the bacterial cell, we used an era deletion mutant in a community-acquired methicillin-resistant S. aureus (CA-MRSA) USA300 strain that we had previously constructed ([10]). […] To establish whether induction of the stringent response in bacterial cells leads to a decrease in the association of Era to the 30S subunit, the era mutant was complemented with an Atet-inducible 6×His-tagged version of era using the iTET vector. […] Normalized 30S pools were analyzed for associated Era-His using α-His Western immunoblotting (Fig. 4C). Crude lysates sampled prior to loading on the sucrose gradients were also analyzed to ensure equal loading and equal expression of Era-His between samples (see Fig. S5B). […]
FIG 4 Association of Era to the 30S subunit is reduced under stringent conditions. […] RNA content was analyzed at an absorbance of 260 nm. […] Ribosomal subunits were separated, and the amount of Era-His associated in each strain was detected using HRP-conjugated α-His antibodies. […]

In the case of `C/C(=C\C(=O)OCCCCCCCCC(=O)O)C[C@@H]1OC[C@H](C[C@@H]2O[C@H]2[C@@H](C)[C@H](C)O)[C@@H](O)[C@H]1O` [mupirocin], the “ribosome association of Era-His after treatment, (p)ppGpp-null strain” value was “decrease is not seen”.

Values taken from paper PMC8579695, “The Stringent Response Inhibits 70S Ribosome Formation in Staphylococcus aureus by Impeding GTPase-Ribosome Interactions” (mBio, 2021).
